Laboratory results from a melting point compilation (Tetko et al.; mined from patent text by program, amines drawn as free bases though some values may be those of a salt).

| Structure (SMILES) | melting point [°C] |
| --- | --- |
| O=C(CCC(=O)N1CCC(c2ccc(F)cc2)CC1)c1ccc2c(c1)CCNCC2 | 127 to 128 |
| CN1CCCN(c2ccc(/C=C/c3cc(/C=C/c4ccc5cc[nH]c5c4)[nH]n3)c(Br)c2)CC1 | 132 to 136 |
| COc1ccc(-c2nc3n(c2-c2ccc(OC)cc2)CCC3)cc1 | 146 to 148 |
| CC(C)c1ccc(C2c3cc(NCc4ccccc4)ccc3OC2(C)C)cc1 (stereo not drawn) | 85 to 86 |
| COC(=O)c1cccc2oc(SCCN3CCN(CC(=O)Nc4c(C(C)C)cccc4C(C)C)CC3)nc12 | 173 to 175 |
| CCS(=O)c1c(C#N)nn(-c2c(Cl)cc(C(F)(F)F)cc2Cl)c1NC (stereo not drawn) | 142 |
| CN1CCN(c2ccc(O)c3c2C[C@H](NC(=O)c2ccc(N4CCOCC4)cc2)CC3)CC1 | 84 to 88 |
| Cc1ccc(-c2ncncc2C#N)cc1 | 127 to 128 |
| O=C(O)C1c2ccccc2CSc2ccc(Br)cc21 (stereo not drawn) | 185 to 186 |
| C=CCCOc1ccc(C[C@H](NC(=O)OC(C)(C)C)C(=O)N[C@@H](CC(C)C)C(=O)O)cc1 | 68 to 70 |
| O=C(/C=C/C1CCCCC1)N1CCN(C(=O)c2cc(C(F)(F)F)cc(C(F)(F)F)c2)[C@H](Cc2c[nH]c3ccccc23)C1 | 198 to 200 |
| CCC(=O)C(CCCCCCOc1ccc2c(c1)OCO2)C(=O)CC | 45 to 46 |
| Cn1nnc(CN2CCC[C@@H](OCc3cc(C(F)(F)F)cc(C(F)(F)F)c3)[C@H]2c2ccccc2)n1 (relative stereo) | 139 to 141 |
| COc1cccc([C@H](C(C)C)N2CCC(c3noc4cc(F)ccc34)CC2)c1 | 40 to 42 |
| Cc1cc(C(=O)O)c(S(N)(=O)=O)o1 | 191 |
| Cc1oc(-c2ccccc2)nc1COc1ccc(COc2ccc(OCc3ccccc3)cc2CC#N)cc1 | 130 to 131 |
| OCC1CCC(c2ccccc2)CC1 (stereo not drawn) | 47.3 to 48.5 |
| C=C[Si]12OC3CC(CC(C3)O1)O2 | 116 |
| CN(C)C(C)(C)c1ccc(-c2nc(Nc3ccc(-n4cncn4)cc3)ncc2C#N)cc1 | 235 to 237 |
| COC(=O)c1nc(Cl)c(F)c(N)c1SC | 75 to 77 |
| COc1ccc(N(CC(=O)NCC(=O)O)C(=O)c2ccc(Cl)cc2)cc1 | 138 to 140 |
| O=S(=O)(Nc1ccc2cnccc2c1)c1ccccc1 | 204 to 206 |
| O=C(Nc1cccc2c(=O)cc(-c3nnn[nH]3)oc12)c1ccc2c(c1)CC(COCc1ccc(F)cc1)O2 (stereo not drawn) | 229 to 232 |
| O=C(O)CCCCCCc1cnc2ccccc2c1 | 120 to 121 |
| CCNC(=S)Nc1cc(F)ccc1C | 93 to 95 |
| COc1ccc2nc(C)c(CCCl)c(=O)n2c1 | 150 |

Further lines, results first:

| melting point [°C] | Structure (SMILES) |
| --- | --- |
| 171 to 172 | COCCCn1ccc2c3c(c(-c4ccccc4Cl)cc21)C(=O)NC3=O |
| 91 to 93 | COC(=O)C(C)c1ccc2cc(OCc3ccc4ccccc4n3)ccc2c1 (stereo not drawn) |
| 234 to 236 | COc1ccc(COC(=O)C2=C3[C@H]4CCCC[C@H]4[C@@H]3S[C@@H]3[C@H](NC(=O)Cc4ccccc4)C(=O)N23)cc1 |
| 294 to 295 | Cn1c(=O)c(=O)[nH]c2ccc3ccccc3c21 |
| 218 | O=C1CCc2ccc(OCCCCOc3ccc4c(c3)NC(=O)CC4)cc2N1 |
| 187 to 189 | COCCOc1cc2c(cc1C#Cc1ccccc1)NC(=O)CC(c1cccc(-n3ccnc3)c1)=N2 |
| 130 to 133 | Fc1ccc(-c2cc(Cl)c3cc(F)ccc3n2)cc1 |
| 152 to 153 | COc1cc(CO)ccc1OCc1sc(-c2ccccc2)nc1C |
| 65 | Clc1ccc(OCC2CO2)c(OCc2ccccc2)c1Cl (stereo not drawn) |
| 98 to 99 | COc1ccc(C2Sc3c(ccc4ccccc34)N(CCCN(C)C)C(=O)C2OC(C)=O)cc1 (stereo not drawn) |
| 96 to 97 | CN(C)CCn1c(=O)c2cccc([N+](=O)[O-])c2c2cnc3cc4c(cc3c21)OCO4 |
| 173 to 174 | CSC1=C([N+](=O)[O-])CN(Cc2ccccc2)CN1 |
